System: mechanically ventilated, adult patients admitted to the intensive care unit (ICU)
Assay: Example 2: prospective, randomized, controlled study, mortality analysis
Format: in vivo, human
Source text: All mechanically ventilated, adult patients admitted to the intensive care unit (ICU) were eligible for inclusion.
All mechanically ventilated, adult (age>18y) patients admitted to our 56-bed, mainly surgical, ICU from Feb. 2, 2000 onward were considered eligible for inclusion. […] Informed consent was obtained from the closest family member. The study protocol was approved by the Institutional Review Board of the Catholic University of Leuven School of Medicine.
Consecutive patients were randomly assigned to one of these two treatment groups using blinded envelopes, stratified according to type of critical illness diagnosed on admission [(a) neurological disease, cerebral trauma or surgery; (b) cardiac surgery; (c) thoracic surgery and/or respiratory insufficiency; (d) abdominal surgery/peritonitis; (e) vascular surgery; (f) multiple trauma or severe burns: (g) organ transplantation; (h) others, mainly extensive oncological procedures] and balanced with the use of permuted blocks of ten.
All patients were fed continuously, on admission with mainly intravenous glucose (200-300 g/24 h) and from the next day onward with a standardised feeding schedule aiming for a caloric content up to 20-30 non-protein Calories/kg/24 h and a balanced composition (0.13-0.26 g nitrogen/kg/24 h and 20%-40% of non-protein Calories as lipids) of either total parenteral, combined parenteral/enteral or full enteral feeding, the latter mode attempted as early as possible. Other comcomitant ICU therapy was left to the discretion of attending physicians.
In patients treated in ICU for more than one week, a weekly electromyography (EMG) was performed to screen for Critical Illness Polyneuropathy. EMGs were interpreted by the same electrophysiologist who was blinded for randomization. In case of ICU death, a post-mortem examination was performed to confirm the presumed cause of death.
The primary outcome measure was death from all causes during intensive care. Secondary outcome measures were in-hospital mortality, incidence of prolonged intensive care dependency and need for ICU re-admission, need for vital organ system support comprising mechanical ventilatory support, renal replacement therapy (continuous or intermittent hemofiltration or dialysis), inotropic or vasopressor support, incidence of critical illness polyneuropathy, the degree of inflammation, incidence of blood stream infections and use of antibiotics, transfusion requirements and incidence of hyperbilirubinemia. Furthermore, use of intensive care resources was analysed by cumulative TISS scores. In order to accurately and objectively assess duration of ICU stay, which is often influenced by non-patient related factors such as bed availability on regular wards, patients were defined ‘dischargable from ICU’ when they were no longer in need of vital organ system support and received at least ⅔rd of the caloric need through the normal enteral route or earlier when actually sent to a ward.
We hypothesized to detect a difference in mortality selectively in long-stay (>5 days) critically ill patients. Since prolonged ICU stay is not predictable at ICU admission, and since we aimed at treatment from admission onward, we chose to include all mechanically ventilated patients admitted to the ICU, without selection. We estimated that inclusion of 2500 admissions would be needed to rule out an absolute difference in mortality of ±5% in the long-stay cohort which would translate in an absolute risk reduction of ±2% for overall ICU mortality (2-sided alfa level of <0.05). […] All analyses were done on intention to treat basis.
Baseline and outcome variables were compared using Student's t-test, Chi-square test and Mann-Whitney-U test, as appropriate. Death odds ratios were calculated using multivariate logistic regression analysis.

insulin
Causes of death during intensive care - total no: cardiogenic shock (IIS): 10 | Causes of death during intensive care - total no: multiple organ failure with proven septic focus (IIS): 8 | Causes of death during intensive care - total no: multiple organ failure, no detectable septic focus (IIS): 14 | Causes of death during intensive care - total no: severe brain damage (IIS): 3 | ICU deaths among patients staying >5 days (%) (IIS): (10.6%) | ICU deaths among patients staying >5 days - total no. (IIS): 22 | ICU deaths among patients staying ≤5 days (%) (IIS): (2.3%) | ICU deaths among patients staying ≤5 days - total no. (IIS): 13 | ICU deaths, abdominal surgery/peritonitis (%) (IIS): (13.3%) | ICU deaths, abdominal surgery/peritonitis - total no (IIS): 6 | ICU deaths, cardiac surgery (%) (IIS): (2%) | ICU deaths, cardiac surgery - total no. (IIS): 10 | ICU deaths, multiple trauma or severe burns (%) (IIS): (12.1%) | ICU deaths, multiple trauma or severe burns - total no. (IIS): 4 | ICU deaths, neurological disease, cerebral trauma or surgery (%) (IIS): (18.1%) | ICU deaths, neurological disease, cerebral trauma or surgery - total no. (IIS): 6 | ICU deaths, other types of critical illness (%) (IIS): (8.7%) | ICU deaths, other types of critical illness - total no (IIS): 25 | ICU deaths, others (%) (IIS): (0%) | ICU deaths, others - total no (IIS): 0 | ICU deaths, thoracic surgery and/or respiratory insufficiency - total no. (IIS): 5 | ICU deaths, transplantation (%) (IIS): (4.3%) | ICU deaths, transplantation - total no (IIS): 2 | ICU deaths, vascular surgery (%) (IIS): (6.6%) | ICU deaths, vascular surgery - total no. (IIS): 2 | In-hospital deaths among patients staying >5 days in ICU (%) (IIS): (16.8%) | In-hospital deaths among patients staying >5 days in ICU - total no. (IIS): 35 | In-hospital deaths among patients staying ≤5 days in ICU (%) (IIS): (3.6%) | In-hospital deaths among patients staying ≤5 days in ICU - total no. (IIS): 20 | Mortality in bacteremic patients (IIS): 12.5% | ICU deaths among patients staying >5 days, NNT (IIS vs RIS): 11 | ICU deaths among patients staying >5 days, RRR (%) (IIS vs RIS): 47% | ICU deaths among patients staying ≤5 days, RRR (%) (IIS vs RIS): = | ICU deaths, NNT to save one life (IIS vs RIS): 29 | ICU deaths, RRR (%) (IIS vs RIS): 43% | In-hospital deaths among patients staying >5 days in ICU, NNT (IIS vs RIS): 11 | In-hospital deaths among patients staying >5 days in ICU, RRR (%) (IIS vs RIS): 36% | In-hospital deaths among patients staying ≤5 days in ICU, RRR (%) (IIS vs RIS): = | In-hospital deaths, NNT (IIS vs RIS): 27 | In-hospital deaths, RRR (%) (IIS vs RIS): 34% | ICU mortality, absolute risk reduction in the prolonged critically ill cohort (IIS vs RIS, ICU stay >5 days): 9.6% | ICU deaths - total no. (IIS, N = 765): 35 | In-hospital deaths - total no. (IIS, N = 765): 55 | Causes of death during intensive care - total no: cardiogenic shock (RIS): 7 | Causes of death during intensive care - total no: multiple organ failure with proven septic focus (RIS): 33 | Causes of death during intensive care - total no: multiple organ failure, no detectable septic focus (RIS): 18 | Causes of death during intensive care - total no: severe brain damage (RIS): 5 | ICU deaths among patients staying >5 days (%) (RIS): (20.2%) | ICU deaths among patients staying >5 days - total no. (RIS): 49 | ICU deaths among patients staying ≤5 days (%) (RIS): (2.6%) | ICU deaths among patients staying ≤5 days - total no. (RIS): 14 | ICU deaths, abdominal surgery/peritonitis (%) (RIS): (15.5%) | ICU deaths, abdominal surgery/peritonitis - total no (RIS): 9 | ICU deaths, cardiac surgery (%) (RIS): (5%) | ICU deaths, cardiac surgery - total no. (RIS): 25 | ICU deaths, multiple trauma or severe burns (%) (RIS): (8.6%) | ICU deaths, multiple trauma or severe burns - total no. (RIS): 3 | ICU deaths, neurological disease, cerebral trauma or surgery (%) (RIS): (23.3%) | ICU deaths, neurological disease, cerebral trauma or surgery - total no. (RIS): 7 | ICU deaths, other types of critical illness (%) (RIS): (13.1%) | ICU deaths, other types of critical illness - total no (RIS): 38 | ICU deaths, others (%) (RIS): (17.1%) | ICU deaths, others - total no (RIS): 6 | ICU deaths, thoracic surgery and/or respiratory insufficiency (%) (RIS): (17.9%) | ICU deaths, thoracic surgery and/or respiratory insufficiency - total no. (RIS): 10 | ICU deaths, transplantation (%) (RIS): (2.3%) | ICU deaths, transplantation - total no (RIS): 1 | ICU deaths, vascular surgery (%) (RIS): (6.3%) | ICU deaths, vascular surgery - total no. (RIS): 2 | In-hospital deaths among patients staying >5 days in ICU (%) (RIS): (26.3%) | In-hospital deaths among patients staying >5 days in ICU - total no. (RIS): 64 | In-hospital deaths among patients staying ≤5 days in ICU (%) (RIS): (3.9%) | In-hospital deaths among patients staying ≤5 days in ICU - total no. (RIS): 21 | Mortality in bacteremic patients (RIS): 29.5% | ICU deaths - total no. (RIS, N = 783): 63 | In-hospital deaths - total no. (RIS, N = 783): 85 | ICU mortality among the RIS patients actually receiving insulin (RIS, insulin-receiving patients): 12.4%

— patent US7446091B2, “Methods and preparations for curing clinically ill patients” (Novo Nordisk A/S, priority 2000, dated 2008)
